The text below walks through data of patent US20080181961A1, “AMORPHOUS OXCARBAZEPINE AND THE PRODUCTION THEREOF” (ISP INVESTMENTS, INC., priority 2007, published 2008).

The structures appear in SMILES notation.

The data set in a line: Aqueous release, USP apparatus II (paddles), water with 6% Cremophor EL (sink conditions). The data set is classed as physicochemical. The following applies: 37° C., 100 rpm to 60 minutes then 200 rpm for 15 minutes, 600 mg dose, FIG. 2.

Method: Dissolution profiles can be determined using USP apparatus II (paddles) (VK 7010®, Varian Inc.), with a bath temperature of 37° C. and a paddle speed of 100 rpm for 60 minutes, followed by a paddle speed of 200 rpm for an additional 15 minutes.
The aqueous release of the spray dried powder was measured using USP apparatus II (paddles) at 37° C. in water with 6% Cremophor EL. The paddle speed was 100 rpm for the first 60 minutes, and then the paddle speed was increased to 200 rpm for an additional 15 minutes. A dose equivalent to 600 mg oxcarbazepine was filled into hard gelatin capsules (Qualicaps, Shionogi). This media creates sink conditions for the tested dose. • 5.
The release profile of this spray dried product was measured using the same dissolution method of Example 1, that is, in media that creates sink conditions for the tested dose. • 5.

For the compound `NC(=O)N1c2ccccc2CC(=O)c2ccccc21` [crystalline oxcarbazepine, 10,11-dihydro-10-oxo-5H-dibenz[b,f]azepine-5-carboxamide], the “oxcarbazepine release after the first 15 minutes” value is “remained essentially constant”.
